Results published in US20100160454A1, “ANTIMICROBIAL AGENTS, COMPOSITIONS AND PRODUCTS CONTAINING THE SAME, AND METHODS OF USING THE COMPOSITIONS AND PRODUCTS” (Eastman Chemical Company, priority 2008, published 2010).

Key:
Assay type in all cases: cell-based
[1] = tested on: Aspergillus niger Wild type; assay: Microbiological challenge testing in BPW broth, graded subculture counts; details: A. niger
Protocol: The microorganisms in the table below were used in challenge tests. They were either ATCC (American Type Culture Collection) or “wild type” as indicated. Wild type organisms were problematic organisms previously isolated from chemical products.
All of the microorganisms were grown in Tryptose Soy Broth (TSB), DIFCO™ available from Becton, Dickinson and Company, containing 1% dextrose. Candida albicans and Aspergillus niger, were incubated at 22° C.+/−2° C. for at least 96 hours. All bacteria were incubated at 35° C.+/−2° C. in a humidified incubator for at least 96 hours.
Candida albicans and Aspergillus niger were also grown on Sabouraud Dextrose Agar (SABD) at 22° C. for 7 to 14 days or until full sporulation was achieved.
The following procedure was followed to determine the amount of each challenge material (inoculum broth) needed to produce a 10^8 CFU/mL challenge, which is equivalent to a final test-sample microbial concentration of 10^5 to 10^6 CFU/mL (CFU=colony forming units).
Using a sterile pipette, 1 mL of the growth from each TSB culture was transferred into tubes of 9 mL buffered water (pH 7.2 phosphate buffer) and mixed thoroughly. This was repeated to make serial 1:10 dilutions. Then, 0.1 mL of each sample and dilution was inoculated onto agar plates to produce the equivalent of a further 1:10 dilution. (C. albicans and A. niger were inoculated onto SABD and bacteria were inoculated onto Plate Count Agar (PCA), DIFCO™ available from Becton, Dickinson and Company.) (The normal volume plated for most samples was 0.1 mL. Some samples that could be very low in micro-organisms (high dilutions) were plated using 0.5 mL of inoculum, in order to produce reproducible counts.) The samples were distributed on the plates using the spread-plate technique. The spread-plate technique is carried out by spreading the sample over the entire plate surface using a sterile spreading rod while rotating the plate with a rotary auto-plater. After the inoculum was absorbed completely by the agar, each plate was inverted and incubated (fungi at 22° C.+/−2° C. and bacteria at 35° C.+/−2° C.).
After incubation for at least 48 hours, colonies that had developed on the agar plates were counted (CFU) and recorded with the corresponding dilution. If counting had to be delayed temporarily, plates were refrigerated, preferably no more than 24 hours, until they could be counted. The number of CFU/mL was determined by multiplying the plate count by the dilution factor of the plate counted.
Turbidity in Nepholemetric Turbidity Units (NTU) was measured for each serial dilution using the HF-Micro 100 Model Turbidimeter. For each microorganism, the plate counts were compared to the turbidity readings.
Aspergillus niger cultures were harvested and spores dislodged from the SABD on which they were grown by rubbing the growth gently with a sterile inoculating loop. The spores were then mixed into the broth culture that had been incubated with a sterile magnetic stir bar to reduce pellicle formation. The spore-culture mixture was filtered repeatedly through sterile, nonabsorbent cotton and harvested repeatedly, adjusting vegetative cells and spores to a level of 1.0×10^8. A hemocytometer was used to verify the final challenge concentration.
Control substrates (“broth alone”) were prepared for each microorganism separately in triplicate by adding 13.5 mL of Buffered Peptone Water broth (BPW) containing 1% dextrose to each 20-mL glass tube, then adding 1.5 mL challenge material to produce a final concentration at time zero of 10^5 to 10^6 CFU/mL and a total volume of 15 mL.

[2] = tested on: Malassezia furfur (ATCC 96809); assay: Challenge testing against pathogenic fungi, growth rating in broth tubes; parameters: key: 0: No visible growth; 1: Some growth in tube; 2: Moderate growth in tube; 3: Good growth in tube; 4: Extreme growth in tube
Protocol: (§1) Both Microsporum canis and Trichophyton rubrum were grown on Sabouraud dextrose broth, while Malassezia fufur was grown in Sabouraud dextrose broth supplemented with 2% (v/v) of olive oil and 0.2% (v/v) of Tween™ 80; incubation was at 22°±2° C. under continuous agitation by stirring for 10 days. The organisms were grown to a density of between 1.0×10^3 to 1.0×10^4 cfu/g. The actual inoculation cell density of these challenges were determined by diluting in sterile buffer water and (spread-plate method) plating for enumeration.
(§2) Challenge organisms were used to inoculate tubes of 1,4-CHDM-D90 test concentrations prepared in Sabouraud dextrose broth (or Sabouraud dextrose broth supplemented with olive oil-Tween™ 80 with M. furfur). The inoculations were in the amount of 1.5 mL aliquots of each culture with static incubation at 22±2° C. Subcultures were made at 3-, 14- and 30-day increments. All challenges were conducted in triplicate. In the case of M. canis, the growth response was assessed by the visual presence/absence of growth in the tubes; in the case of T. rubrum, a respiratory (redox) dye (0.2% w/v aqueous INT solution: 2-[4-iodophenyl)-3-4-nitrophenyl]-5-phenyl tetrazolium chloride) was added to the tubes, turning red if the organism was viable; and, finally, in the case of M. furfur, the growth response was assessed based upon pellicle formation in the tubes at the meniscus. The test formulations and challenge test results, as well as 30-day MICs (Minimum Inhibitory Concentration), are in Tables 7-9 for the three organisms using the following growth rating system:
(§3) • 0: No visible growth • 1: Some growth in tube • 2: Moderate growth in tube • 3: Good growth in tube • 4: Extreme growth in tube

[3] = tested on: Trichophyton rubrum (ATCC 10218); assay: as above; parameters: key: 0: No visible growth; 1: Some growth in tube; 2: Moderate growth in tube; 3: Good growth in tube; 4: Extreme growth in tube
Protocol: as §1, §2, §3

Row | Structure (SMILES) | Grade ([1]; 0.5% (wt/vol), 3 day) | Grade ([1]; 0.5% (wt/vol), 13 day) | Grade ([1]; 0.5% (wt/vol), 30 day) | Grade ([1]; 1.25% (wt/vol), 3 day) | Grade ([1]; 1.25% (wt/vol), 13 day) | Grade ([1]; 1.25% (wt/vol), 30 day) | Grade ([1]; 2.5% (wt/vol), 3 day) | Grade ([1]; 2.5% (wt/vol), 13 day) | Grade ([1]; 2.5% (wt/vol), 30 day) | Grade ([1]; 5.0% (wt/vol), 3 day) | Grade ([1]; 5.0% (wt/vol), 13 day) | Grade ([1]; 5.0% (wt/vol), 30 day) | M. furfur growth rating, 3 day ([2]; 0.5% weight/volume) | M. furfur growth rating, 14 day ([2]; 0.5% weight/volume) | M. furfur growth rating, 30 day ([2]; 0.5% weight/volume) | M. furfur growth rating, 3 day ([2]; 1.25% weight/volume) | M. furfur growth rating, 14 day ([2]; 1.25% weight/volume) | M. furfur growth rating, 30 day ([2]; 1.25% weight/volume) | M. furfur growth rating, 3 day ([2]; 2.5% weight/volume) | M. furfur growth rating, 14 day ([2]; 2.5% weight/volume) | other results
1 | O=C([O-])CN(CCN(CC(=O)[O-])CC(=O)O)CC(=O)O.[Na+].[Na+] [EDTA, Na2EDTA] | 4 | 4 | 4 | 2 (Countable (10 to 100 colonies)) | 1 (Countable (1 to 10 colonies)) | 3 | 0 | 0 | 0 | 0 | 0 | 0 | 0 | 0 | 0 | 0 | 0 | 0 | 0 | 0 | M. furfur growth rating, 30 day ([2]; 2.5% weight/volume): 0; M. furfur growth rating, 3 day ([2]; 5.0% weight/volume): 0; M. furfur growth rating, 14 day ([2]; 5.0% weight/volume): 0; M. furfur growth rating, 30 day ([2]; 5.0% weight/volume): 0; T. rubrum growth rating, 3 day ([3]; 0.5% weight/volume): 1; T. rubrum growth rating, 14 day ([3]; 0.5% weight/volume): 0; T. rubrum growth rating, 30 day ([3]; 0.5% weight/volume): 0; T. rubrum growth rating, 3 day ([3]; 1.25% weight/volume): 0; T. rubrum growth rating, 14 day ([3]; 1.25% weight/volume): 0; T. rubrum growth rating, 30 day ([3]; 1.25% weight/volume): 0; T. rubrum growth rating, 3 day ([3]; 2.5% weight/volume): 1; T. rubrum growth rating, 14 day ([3]; 2.5% weight/volume): 0; T. rubrum growth rating, 30 day ([3]; 2.5% weight/volume): 0; T. rubrum growth rating, 3 day ([3]; 5.0% weight/volume): 1; T. rubrum growth rating, 14 day ([3]; 5.0% weight/volume): 0; T. rubrum growth rating, 30 day ([3]; 5.0% weight/volume): 0
2 | CC(O)CO (stereo not drawn) [PG, propylene glycol] | 5 | 5 | 5 | 5 | 5 | 5 | 4 | 5 | 5 | 4 | 4 | 4 | 0 | 3 | 3 | 0 | 3 | 3 | 0 | 3 | M. furfur growth rating, 30 day ([2]; 2.5% weight/volume): 3; M. furfur growth rating, 3 day ([2]; 5.0% weight/volume): 0; M. furfur growth rating, 14 day ([2]; 5.0% weight/volume): 0; M. furfur growth rating, 30 day ([2]; 5.0% weight/volume): 3; T. rubrum growth rating, 3 day ([3]; 0.5% weight/volume): 0; T. rubrum growth rating, 14 day ([3]; 0.5% weight/volume): 1; T. rubrum growth rating, 30 day ([3]; 0.5% weight/volume): 1; T. rubrum growth rating, 3 day ([3]; 1.25% weight/volume): 1; T. rubrum growth rating, 14 day ([3]; 1.25% weight/volume): 0; T. rubrum growth rating, 30 day ([3]; 1.25% weight/volume): 1; T. rubrum growth rating, 3 day ([3]; 2.5% weight/volume): 1; T. rubrum growth rating, 14 day ([3]; 2.5% weight/volume): 0; T. rubrum growth rating, 30 day ([3]; 2.5% weight/volume): 1; T. rubrum growth rating, 3 day ([3]; 5.0% weight/volume): 1; T. rubrum growth rating, 14 day ([3]; 5.0% weight/volume): 0; T. rubrum growth rating, 30 day ([3]; 5.0% weight/volume): 1
3 | CC1(C)C(O)C(C)(C)C1O (stereo not drawn) [TMCBD, 2,2,4,4-tetramethyl-1,3-cyclobutanediol] | 5 | 5 | 5 | 4 | 4 | 4 | 3 | 2 (Countable (10 to 100 colonies)) | 3 | 2 (Countable (10 to 100 colonies)) | 0 | 0 | 0 | 1 | 2 | 0 | 1 | 2 | 0 | 0 | M. furfur growth rating, 30 day ([2]; 2.5% weight/volume): 0; M. furfur growth rating, 3 day ([2]; 5.0% weight/volume): 0; M. furfur growth rating, 14 day ([2]; 5.0% weight/volume): 0; M. furfur growth rating, 30 day ([2]; 5.0% weight/volume): 0; T. rubrum growth rating, 3 day ([3]; 0.5% weight/volume): 1; T. rubrum growth rating, 14 day ([3]; 0.5% weight/volume): 1; T. rubrum growth rating, 30 day ([3]; 0.5% weight/volume): 0; T. rubrum growth rating, 3 day ([3]; 1.25% weight/volume): 0; T. rubrum growth rating, 14 day ([3]; 1.25% weight/volume): 0; T. rubrum growth rating, 30 day ([3]; 1.25% weight/volume): 1; T. rubrum growth rating, 3 day ([3]; 2.5% weight/volume): 0; T. rubrum growth rating, 14 day ([3]; 2.5% weight/volume): 0; T. rubrum growth rating, 30 day ([3]; 2.5% weight/volume): 0; T. rubrum growth rating, 3 day ([3]; 5.0% weight/volume): 0; T. rubrum growth rating, 14 day ([3]; 5.0% weight/volume): 0; T. rubrum growth rating, 30 day ([3]; 5.0% weight/volume): 0
